Measurements taken from paper PMC5086919, “Antileukemic Scalarane Sesterterpenoids and Meroditerpenoid from Carteriospongia (Phyllospongia) sp., Induce Apoptosis via Dual Inhibitory Effects on Topoisomerase II and Hsp90” (Scientific Reports, 2016).
≈ marks a conversion by molar mass, not a printed value. Where “and” joins values, the source holds several entries; their conditions need not be identical. Identical values can stand only once.

Key:
[1] = tested on: Molt 4 cells; experiment: Annexin V/PI apoptosis assay; format: cell-based, human
Method: The externalization of phosphatidylserine (PS) and membrane integrity were quantified using an annexin V- FITC staining kit[72]. In brief, 10^6 cells were grown in 35 mm diameter plates and were labeled with annexin V-FITC (10 μg/mL) and PI (20 μg/mL) prior to harvesting. After labeling, all plates were washed with a binding buffer and harvested. Cells were resuspended in the binding buffer at a concentration of 2 × 10^5 cells/mL before analysis by flow cytometer FACS-Calibur (Becton-Dickinson, San Jose, CA, USA) and CellQuest software. Approximately 10,000 cells were counted for each determination.

[2] = tested on: Cal-27 cells; experiment: MTT antiproliferative assay, oral Cal-27 cells; settings: Homo sapiens, CAL-27, 72 h, read-out: IC50, cytotoxicity, Oral Cal-27
Excerpt: (§4) Several cancer cell lines including leukemia K562, Molt 4, and HL 60 cells, prostate cancer LNCaP cells, colon cancer DLD-1 cells and breast cancer T-47D cells were used to evaluate the antiproliferative activity.
(§5) The cell lines were obtained from the American Type Culture Collection (ATCC, Manassas, VA, USA). […] Dimethyl sulfoxide (DMSO), 3-(4,5-dimethylthiazol-2-yl)-2,5-diphenyl-tetrazolium bromide (MTT) and all other chemicals were purchased from Sigma-Aldrich (St. Louis, MO, USA).

[3] = tested on: all leukemia and one lymphoma cell lines; experiment: MTT assay, summary statement for leukemia and lymphoma lines; settings: read-out: IC50 against all leukemia and one lymphoma cell lines
Excerpt: as §4, §5

[4] = tested on: Ca9-22 cells; experiment: MTT antiproliferative assay, oral Ca9-22 cells; settings: Homo sapiens, Ca9-22, 72 h, read-out: IC50, cytotoxicity, Oral Ca9-22
Excerpt: as §4, §5

[5] = target: T1, human topoisomerase II (Homo sapiens, UniProt P11388); experiment: Cell-free topoisomerase II DNA relaxation/cleavage assay with supercoiled pHOT1 plasmid DNA; format: biochemical; settings: compared with control supercoiled DNA
T1 construct: purchased Topogen
Excerpt: (§1) The ability of Topo II to generate DNA damage in the presence of Topo II-targeting agents led to the hypothesis that an important determinant of drug sensitivity was related to the overall level of Topo II[17]. […] Such findings encouraged us to evaluate the effect of the isolates on Topo II activity. In order to confirm whether the DNA damage-induced by the isolated sesterterpenoids involved the inhibition of Topo II activity, a cell-free DNA cleavage assay using an enzyme-mediated negatively supercoiled pHOT1 plasmid DNA was applied. […] These marine terpenoids suppressed Topo II activity, resulting in the inhibition of supercoiled DNA relaxation in a dose-dependent manner (Fig. 5A). […] To determine whether the apoptotic mechanism of these compounds affects γH2AX (as a biomarker of DNA damage) induction, Western blot analysis was employed to examine the activation of γH2AX.
The assay was performed as described previously. […] Reactions were terminated by adding 2 μL of 10% SDS to facilitate trapping the enzyme in a cleavage complex, followed by the addition of 2.5 μL of proteinase K (50 μg/mL) to digest the bound protein (incubated at 37 °C for 15 min) and finally by adding 0.1 volume of the sample loading dye. The DNA products were analyzed via electrophoresis through vertical 2% agarose gels at 2 voltage/cm in 0.5 × TAE buffer. Gels were stained with ethidium bromide and photographed using an Eagle Eye II system (Stratagene, La Jolla, CA, USA). The quantitative analysis of the DNA Topo II activity was performed as described previously.

[6] = tested on: DLD-1 cells; experiment: MTT antiproliferative assay, colon cancer DLD-1 cells; settings: Homo sapiens, DLD-1, 72 h, read-out: IC50, cytotoxicity, Colon DLD-1
Excerpt: as §4, §5

[7] = tested on: HL 60 cells; experiment: MTT antiproliferative assay, leukemia HL 60 cells; settings: Homo sapiens, HL-60, 72 h, read-out: IC50, cytotoxicity, Leukemia HL 60
Excerpt: as §4, §5

[8] = tested on: γH2AX in Molt 4 cells; experiment: Western blot of γH2AX (DNA damage biomarker); format: cell-based, human; settings: 0, 0.0625, 0.125 and 0.25 μg/mL, 24 h
Excerpt: as §1
(§2) Cell lysates were prepared by treating the cells for 30 min in RIPA lysis buffer, 1% Nonidet P-40, 0.5% sodium deoxycholate, 0.1% sodium dodecyl sulphate (SDS), 1 mM sodium orthovanadate, 100 μg/mL phenylmethylsulfonyl fluoride and 30 μg/mL aprotinin) (all chemicals were from Sigma)[38]. The lysates were centrifuged at 20,000 × g for 30 min, and the protein concentration in the supernatant was determined using a BCA protein assay kit (Pierce). Equal amounts of proteins were respectively separated by 7.5%, 10% or 12% of SDS-polyacrylamide gel electrophoresis and then were electrotransferred to a PVDF membrane. The membrane was blocked with a solution containing 5% non-fat dry milk TBST buffer (20 mM Tris-HCl, pH 7.4, 150 mM NaCl and 0.1% Tween 20) for 1 h and washed with TBST buffer. The protein expressions were monitored by immunoblotting using specific antibodies. These proteins were detected by an enhanced chemiluminescence kit (Pierce).

[9] = tested on: Hsp70 in Molt 4 cells; experiment: Immunofluorescence localization of Hsp70, confocal microscope; format: cell-based, human
Method: (§3) It was also reported that the induction of Hsp70 is the biomarker of Hsp90 with N-terminal inhibition. Aiming to understand the relation between Hsp90 function and the expression of Hsp70 and 90 clients, we treated Molt 4 cells with 1 (0.0625 μg/mL) for different time intervals. […] The majority of Hsps accumulate in subcellular localizations that determine whether a cell is going to die or differentiate. Erythroblasts with accumulated nuclear Hsp70 continued their differentiation process during the formation of red blood cells. Furthermore, we identified the localization of Hsp70 in response to 1 treatment using immunofluorescence by confocal microscope.
After treatment with the tested compound, cells were fixed with 4% paraformaldehyde in 50 mM HEPES buffer (pH 7.3) for 30 min, and permeabilized for 20 min with 0.2% Trition X-100 in PBS (pH 7.4). To prevent non-specific protein binding, cells were incubated with 5% BSA in PBS containing 0.05% Trition X-100 (T-PBS) for 1 h at room temperature. Cells were then incubated with the primary Hsp70 antibodies (1: 500) for 2 h and further with secondary antibodies (Alexa Fluor […] goat anti-mouse IgG (H + L) (Life Technologies, Carlsbad, CA, USA) diluted at 1:1000 for 1 h at room temperature. After washing with PBS, cells were observed under a FV1000 confocal laser scanning microscope (Olympus, Tokyo, Japan).

[10] = tested on: Hsp90 client proteins in Molt 4 cells; experiment: Western blot of Hsp90, Hsp70, HSF 1 and Hsp90 client proteins; format: cell-based, human; settings: 0.0625 μg/mL, different time intervals
Method: as §3, §2

T1 sequence (P11388 whole entry): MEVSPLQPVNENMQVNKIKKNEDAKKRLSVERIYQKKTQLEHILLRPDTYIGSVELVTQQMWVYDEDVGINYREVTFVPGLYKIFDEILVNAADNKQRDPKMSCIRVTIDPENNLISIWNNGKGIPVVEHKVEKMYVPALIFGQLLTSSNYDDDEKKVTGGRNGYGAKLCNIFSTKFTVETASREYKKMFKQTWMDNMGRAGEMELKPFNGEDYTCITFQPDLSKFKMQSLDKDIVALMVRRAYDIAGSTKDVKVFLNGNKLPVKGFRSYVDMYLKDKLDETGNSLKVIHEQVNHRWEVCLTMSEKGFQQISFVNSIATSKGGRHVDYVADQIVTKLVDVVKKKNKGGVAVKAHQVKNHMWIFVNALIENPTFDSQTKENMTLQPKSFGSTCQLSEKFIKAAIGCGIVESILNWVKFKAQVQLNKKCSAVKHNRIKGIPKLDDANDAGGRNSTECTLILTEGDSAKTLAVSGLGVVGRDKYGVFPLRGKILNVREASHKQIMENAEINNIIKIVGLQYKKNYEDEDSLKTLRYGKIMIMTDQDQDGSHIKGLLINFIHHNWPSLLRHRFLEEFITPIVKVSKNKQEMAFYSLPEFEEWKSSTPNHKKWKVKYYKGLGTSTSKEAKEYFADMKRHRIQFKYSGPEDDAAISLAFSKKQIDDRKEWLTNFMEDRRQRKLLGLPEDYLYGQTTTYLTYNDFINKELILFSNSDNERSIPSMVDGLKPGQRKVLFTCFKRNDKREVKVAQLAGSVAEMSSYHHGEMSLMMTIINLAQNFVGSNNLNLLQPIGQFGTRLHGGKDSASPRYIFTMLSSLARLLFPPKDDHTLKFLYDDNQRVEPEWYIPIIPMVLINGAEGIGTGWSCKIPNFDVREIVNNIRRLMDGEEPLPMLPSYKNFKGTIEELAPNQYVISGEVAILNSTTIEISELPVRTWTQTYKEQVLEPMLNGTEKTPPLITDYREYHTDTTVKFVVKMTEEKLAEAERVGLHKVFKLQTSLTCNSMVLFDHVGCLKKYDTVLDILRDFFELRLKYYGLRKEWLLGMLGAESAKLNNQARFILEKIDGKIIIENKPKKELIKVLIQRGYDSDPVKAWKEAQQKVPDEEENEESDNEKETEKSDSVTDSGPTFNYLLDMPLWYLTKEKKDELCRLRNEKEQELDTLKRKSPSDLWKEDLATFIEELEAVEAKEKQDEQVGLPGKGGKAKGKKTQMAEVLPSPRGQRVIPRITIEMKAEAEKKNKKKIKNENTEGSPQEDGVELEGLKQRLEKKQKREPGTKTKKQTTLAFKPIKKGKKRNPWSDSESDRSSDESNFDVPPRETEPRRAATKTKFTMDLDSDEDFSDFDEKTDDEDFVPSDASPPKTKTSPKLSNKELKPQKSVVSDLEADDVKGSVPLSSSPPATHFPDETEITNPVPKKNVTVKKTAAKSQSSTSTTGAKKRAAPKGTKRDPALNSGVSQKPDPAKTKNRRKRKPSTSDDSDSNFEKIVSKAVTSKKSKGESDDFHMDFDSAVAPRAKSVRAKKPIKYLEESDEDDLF

## CC[C@@]1(C)CCC[C@]2(C)[C@H]3C[C@@H](OC(=O)C[C@@H](C)O)[C@]4(C)[C@@H](C=O)C(C(C)=O)=CC[C@H]4[C@]3(C)CC[C@@H]12 (relative stereo) [Compound 1, 12β-(3′β-hydroxybutanoyloxy)-20,24-dimethyl-24-oxo-scalara-16-en-25-al]
[1]; 0, 0.0625, 0.125 and 0.25 μg/mL, 24 h, annexin-V/PI
  apoptotic population of Molt 4 cells: increase in the apoptotic population
[1]; 24 h, flow cytometry
  lowest dose inducing mitochondrial dysfunction and apoptotic cell death: 0.0625 µg/mL
[1]; Molt 4 cells, molar value in brackets
  concentration that triggered MMP disruption and apoptosis: 125 nM
[2]
  IC50: 0.56 µg/mL (≈ 1.12 µM)
[3]
  IC50: 0.01 µg/mL and 2.08 nM
[4]
  IC50: 0.1 µg/mL (≈ 0.2 µM)
[5]; 0.08 μg/mL
  inhibition at 0.08 µg/mL: 12%
[5]; 0.312 μg/mL
  inhibition at 0.312 µg/mL: 13%
[5]; 1.25 μg/mL
  inhibition at 1.25 µg/mL: 17%
[5]; 5 μg/mL
  inhibition at 5 µg/mL: 20%
[5]; 20 μg/mL
  inhibition at 20 µg/mL: 99%
[6]
  IC50: 2.33 µg/mL (≈ 4.65 µM)
[7]
  IC50: 0.01 µg/mL (≈ 0.02 µM)
[8]
  expression of γH2AX: significantly enhanced the expression of γH2AX in a dose-dependent manner
[9]
  localization of Hsp70: predominantly accumulated in cytosol
[10]
  expression of HSF 1 protein: attenuated
  expression of Hsp70: increased in a time-dependent manner
  expression of Hsp90 client proteins (p70S6k, NFκB, Raf-1, p-GSK3β, MEK 1, XIAP, MDM 2, Rb2, CDK4, HIF 1, HSF1): suppression of Hsp90 client proteins was observed
  expression of Hsp90 protein: did not notably attenuate the expression of Hsp90 protein
